Measurements: patent US8389551B2, “Optical enantiomers of phenyramidol and process for chiral synthesis” (Fermenta Biotech (UK) Limited, priority 2006, dated 2013)
Marks after values point to notes of the source that are not given here.

Columns and labels:
Type in all cases: in vivo
Wistar rats = assay: Anti-inflammatory activity, carrageenin induced paw edema (plethysmometer); settings: for % Increase in Paw volume 1 HR: 1 HR after carrageenan, oral, racemate 2400 mg, isomers 1200 mg human daily dose extrapolated to rats, Indomethacin 15 mg/kg, diclofenac 10 mg/kg; for % Increase in Paw volume 2 HR: 2 HR after carrageenan; for % Increase in Paw volume 2 HR / % Increase in Paw volume 3 HR / % Increase in Paw volume 5 HR: doses as E46; for % Increase in Paw volume 3 HR: 3 HR after carrageenan; for % Increase in Paw volume 5 HR: 5 HR after carrageenan
Method: Further, the investigations were carried out to determine the anti-inflammatory activities of the molecule of the present invention. Wistar rats weighing between 160-210 gm were divided into 6 groups of 10 animals each. Group I served as control (Placebo) and receive CMC and Group II & III received anti-inflammatory control (positive control) (Diclofenac & Indomethacin respectively). Group IV to VI were treated orally with test formulations. After 15 min. of drug administration, inflammation was induced by injecting 0.1 ml of freshly prepared 1% carrageenin (in normal saline) into the left hind paw of the rat. The paw volume of the […] was measured by measuring the displace fluid in other hand of plethysmometer.
Indomethacin (15 mg/kg and declofenac (10 mg/kg) was used as reference product. Percent increased in rat paw edema was measured and compare to normal control at each time intervals.
The antiinflammatory activity was assessed plethysmographically using following time points after the administration of carrageenan, 1 hr, 2 hrs, 3 hrs and 5 hrs.

swiss albino mice [1] = assay: Analgesic activity, acetic acid induced writhing method
Method: The objective of the study was to evaluate the analgesic activity of the tested formulations of the compounds of the present invention. The test was conducted in Swiss albino mice using acetic acid induced writhing method. A total of 78 pre-screened mice (showing writhing response within 10 minutes*) were divided into 6 groups of 13 animals (6 males+7 females) each. The animals showing no writhing response within 10 mins were excluded. Diclofenac and pentazocine were used as positive controls. The formulations were given orally to the different groups of animals and the number of writhes counted for a period of 15 minutes, after the onset of writhes. If the onset of writhes occurred 30 after 10 minutes the number of writhes was recorded as V. The time of onset of writhes was recorded for each animal.
The control group received 1% gum acacia. The Groups 2, 3, and 4 received the formulations viz: Phen 2; Phen 3 and Phen 4 respectively. Diclofenac and pentazocine were used as positive control and given to groups 5 and 6 respectively. Diclofenac, a potent analgesic & anti-inflammatory agent; and 5 pentazocine an opoid analgesic were selected for comparative evaluation of test formulations. Both these drugs were administered to different groups of animals at the dose of 2 mg/kg. The group 1 (Phen 1) served as—Ve Control group in the study. Phen 5 (Diclofenac—2 mg/kg) and Positive Control: Phen 6 (Pentazocine 2 mg/kg) served as positive controls.
Human daily dose of 2400 mg (800 mg×3 times) was extrapolated to mice for Phen3 and human daily dose of 1200 mg (400 mg×3 times) was extrapolated to mice for Phen2 and Phen 4. The numbers of writhes observed are given below in Table 4 for each formulation.
Further, the evaluation of analgesic activity was carried out using variable dosage forms with different groups. A total of 100 animals (50 males+50 females) were selected randomly and distributed into ten main groups with 10 animals per group (5 M+5 F). Human daily dose of 2400 mg (800 mg×3 times) was extrapolated to mice for Phen 3 (Phenyramidol Racemic (Hydrochloride) and human daily dose of 1200 mg (400 mg×3 times), 1800 mg (400 mg×4.5 times), 2000 mg (400 mg×5 times) & 2400 mg (400 mg×6 times) was extrapolated to mice for Phen2 and Phen4 groups.
The control group 1 received 1% gum acacia and served as negative control group. Groups 2, 3, 4 & 5 received the formulation Phen2. Groups 6, 7, 8 & 9 received the formulation Phen 4 (Isomer 2) & Group 10 received the formulation Phen 3 (Racemic).
Further, one more experiment was done with phenyramidol hydrochloride to evaluate the analgesic activity at lesser dosage levels using acetic acid induced method. A total of 50 animals (25 males+25 females) were selected and randomly distributed into five main groups with 10 animals per group (5 M+5 F). 5 Human daily dose of 600 mg (400×1.5 times) & 1200 mg (800 mg×1.5 times) was extrapolated to mice for Phen 3 (Racemic) and human daily dose of 600 mg (400 mg×1.5 times) was extrapolated to mice for (−) Phenyramidol Hydrochloride & (+) Phenyramidol Hydrochloride and the results are discussed in Table 6.

mice = assay: Central analgesic activity, tail flick analgesiometer; settings: mouse, in vivo
swiss albino mice [2] = assay: Skeletal muscle relaxant activity, Rota rod apparatus, first experiment (oxalate salts, dose groups); settings: at the doses mentioned
Method: The evaluation of skeletal muscle relaxant activity of the formulations containing phenyramidol racemic, dextro and laevo isomers of oxalate salts in swiss albino mice were carried out using Rota rod apparatus. Each animal was trained only once per day for 5 days. […] Mouse was placed on rota rod only when it achieved the speed of 25 rpm. The ‘fall off time’ in seconds was noted down when the mouse falls from rotating rod. Endurance time was measured up to 120 seconds. The skeletal muscle relaxant activity was assessed using 0 hr, 1 hr, 2 hrs, 4 hrs and 6 hrs time points after the dose administration. A total of 100 mice were selected and randomly distributed into ten main groups with 10 animals per group.
Control group receiving only vehicle served as a placebo in the study.
The test formulations were administered by oral route through gavage tube.(p.o.).
Two efficacy variables were assessed during the experiment: 1. Percent animal falling from the rod was noted; 2. Endurance Time (ET): The time taken for a mouse to fall from the rod was taken as endurance time. […] These efficacy variables were assessed at five time points 0 hr, 1 hr, 2 hr, 4 hr, and 6 hr for each and every animal.

rats = assay: Anti-arthritic activity, thickness of joint of right paw after injection of formalin; settings: for Thickness of Joint (in cm) 0 hr: 0 hr (initial); for Thickness of Joint (in cm) 0 hr / Thickness of Joint (in cm) 2 hr: Phen 3 2400 mg, Phen 2 and Phen 4 1200 mg human daily dose extrapolated to rats, Diclofenac sodium 2 mg/Kg; for Thickness of Joint (in cm) 2 hr: 2 hr after formalin; for Thickness of Joint (in cm) 4 hr: 4 hr after formalin; for Thickness of Joint (in cm) 4 hr / Thickness of Joint (in cm) 8 hr / Thickness of Joint (in cm) 24 hr / Thickness of Joint (in cm) 48 hr / Thickness of Joint (in cm) 72 hr: doses as E38; for Thickness of Joint (in cm) 8 hr: 8 hr after formalin; for Thickness of Joint (in cm) 24 hr: 24 hr after formalin; for Thickness of Joint (in cm) 48 hr: 48 hr after formalin; for Thickness of Joint (in cm) 72 hr: 72 hr after formalin; for Anti-arthritic activity (conclusion): formalin model, FIG. 18
Method: The anti-arthritic activity was assessed using following time points after the injection of formalin 2 hrs, 4 hrs, 8 hrs, 24 hrs, 48 hrs and 72 hrs. The control group (group 1) received 1% gum acacia. The Groups 2, 3, and 4 received the formulations viz: Phen 2, Phen 3 and Phen 4 respectively. Diclofenac was used as positive control and given to group 5. Human daily dose of 2400 mg (800 mg×3 times) was extrapolated to rats for 5 (racemate) Phen 3 and human daily dose of 1200 mg (400 mg×3 times) was extrapolated to rats for (isomer 1) Phen 2 and (isomer 2) Phen 4. Diclofenac sodium 2 mg/Kg was used as reference product.
Initial or 0 hr thickness of the joint of right paw of each animal was recorded. The thickness of the joint was measured using Vernier calipers at different time intervals after the injection of formalin. These efficacy variables were assessed at six time points 2 hrs, 4 hrs, 8 hrs, 24 hrs, 48 hrs and 72 hrs for each and every animal.

[3] = Table 4, oral, writhes counted 15 minutes, Phen3 human daily dose 2400 mg, Phen2 and Phen 4 1200 mg extrapolated to mice, Diclofenac and Pentazocine 2 mg/kg
[4] = Table 5, dose 1200 mg (human daily dose extrapolated to mice), mean ± SD, n = 10
[5] = Table 5, dose 1800 mg (human daily dose extrapolated to mice), mean ± SD, n = 10
[6] = Table 5, dose 2000 mg (human daily dose extrapolated to mice), mean ± SD, n = 10
[7] = Table 5, dose 2400 mg (human daily dose extrapolated to mice), mean ± SD, n = 10
[8] = experiment of Table 5 (variable doses)

Compound	% Increase in Paw volume 1 HR (Wistar rats) [%]	% Increase in Paw volume 2 HR (Wistar rats) [%]	% Increase in Paw volume 3 HR (Wistar rats) [%]	% Increase in Paw volume 5 HR (Wistar rats) [%]	Average no. of writhes (swiss albino mice [1]; [3])	Tail Flick Reaction Time (Sec.) 1 hr. (mice) [s]	Tail Flick Reaction Time (Sec.) 4 hr. (mice) [s]	Average no. of writhes (swiss albino mice [1]; [4])	Average no. of writhes (swiss albino mice [1]; [5])	Average no. of writhes (swiss albino mice [1]; [6])	Average no. of writhes (swiss albino mice [1]; [7])	analgesic activity by decrease in the number of writhes induced by acetic acid (swiss albino mice [1]; experiment of Table 4)	analgesic activity by decrease in the number of writhes induced by acetic acid (swiss albino mice [1]; [8])	Thickness of Joint (in cm) 0 hr (rats) [cm]	Thickness of Joint (in cm) 2 hr (rats) [cm]	Thickness of Joint (in cm) 4 hr (rats) [cm]	Thickness of Joint (in cm) 8 hr (rats) [cm]	Thickness of Joint (in cm) 24 hr (rats) [cm]	Thickness of Joint (in cm) 48 hr (rats) [cm]	Thickness of Joint (in cm) 72 hr (rats) [cm]	also measured
COc1ccc2c(c1)c(CC(=O)O)c(C)n2C(=O)c1ccc(Cl)cc1 [Indomethacin]	18.58 ± 11.38	31.27 ± 4.75	41.42 ± 12.54	28.86 ± 8.22																	
CC(C)=CCN1CCC2(C)c3cc(O)ccc3CC1C2C (stereo not drawn) [Pentazocine]					10.62 ± 9.47*	3.0 ± 0.7055	3.0 ± 0.7055														
O=C(O)C(=O)O.O[C@H](CNc1ccccn1)c1ccccc1 [Phen 2, (S)-Phenyramidol Oxalate]	25.82 ± 11.67	40.57 ± 10.07	66.59 ± 20.88	48.71 ± 15.16	13.08 ± 9.93*	4.31 ± 1.754	2.46 ± 0.591	11.90 ± 8.43*	8.80 ± 6.78*	8.20 ± 7.30*	6.00 ± 5.66*	significant analgesic activity	significant analgesic activity	0.45 ± 0.06	0.59 ± 0.03	0.56 ± 0.04	0.60 ± 0.06	0.54 ± 0.05	0.52 ± 0.04	0.50 ± 0.03	skeletal muscle relaxant activity (conclusion) (swiss albino mice [2]): exhibit skeletal muscle relaxant activity
O=C(O)C(=O)O.O[C@@H](CNc1ccccn1)c1ccccc1 [Phen 4, (R)-Phenyramidol Oxalate]	25.37 ± 10.44	39.90 ± 6.12	68.36 ± 22.20	49.65 ± 19.03	12.08 ± 4.21*	2.87 ± 1.071	3.18 ± 1.540	10.50 ± 6.65*	6.20 ± 5.39*	6.00 ± 6.41*	4.50 ± 5.19*	significant analgesic activity	significant analgesic activity	0.49 ± 0.04	0.56 ± 0.05	0.56 ± 0.05	0.62 ± 0.03	0.55 ± 0.05	0.53 ± 0.04	0.51 ± 0.03	difference from normal control in thickness of the joint (rats; at 2 hr, One Way ANOVA followed by Dunnett's Test): significant difference (p<0.05); Anti-arthritic activity (conclusion) (rats): exhibits Anti-arthritic activity; Anti-arthritic activity (conclusion) (rats; listed as Phen4): significant anti-arthritic activity
